Laboratory results: patent US11377442B2, “Small molecule agonists and antagonists of NR2F6 activity” (ZANDER THERAPEUTICS, INC., priority 2016, dated 2022)
Read-outs that look alike come from different tables or passages of the source. Each block holds one compound with its values, some of them ahead of it.

Assays:
Assay type in all cases: cell-based
[1] = biological target: T1, NR2F6 (Homo sapiens, UniProt P10588); experiment: NR2F6 agonist screening, Firefly signal cmpd/DMSO
T1 construct: expressed in transfected cells; also transient transfection
T1 sequence (P10588 1-404): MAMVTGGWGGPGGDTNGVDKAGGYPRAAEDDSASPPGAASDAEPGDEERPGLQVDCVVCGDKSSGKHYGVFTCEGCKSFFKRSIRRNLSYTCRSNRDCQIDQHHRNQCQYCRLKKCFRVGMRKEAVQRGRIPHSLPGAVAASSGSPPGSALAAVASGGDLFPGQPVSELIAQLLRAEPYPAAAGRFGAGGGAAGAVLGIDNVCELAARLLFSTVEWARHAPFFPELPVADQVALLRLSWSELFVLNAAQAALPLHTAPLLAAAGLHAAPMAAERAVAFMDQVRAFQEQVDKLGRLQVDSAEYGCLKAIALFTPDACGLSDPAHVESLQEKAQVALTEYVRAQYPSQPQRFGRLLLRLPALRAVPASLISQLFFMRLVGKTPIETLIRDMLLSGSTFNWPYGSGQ

[2] = test system: Renilla; experiment: Renilla signal in NR2F6 agonist screening, cmpd/DMSO; settings: Renilla, F4
[3] = test system: HEK293 pGL4; experiment: Firefly_pGL signal, cmpd/DMSO (pGL4 control cells); settings: Homo sapiens
[4] = biological target: T2, NR2F6 LBD (Homo sapiens, UniProt P10588); experiment: NR2F6 LBD transient transfection; settings: LBD
T2 construct: expressed in transfected cells
T2 sequence (P10588 165-393 limits assumed): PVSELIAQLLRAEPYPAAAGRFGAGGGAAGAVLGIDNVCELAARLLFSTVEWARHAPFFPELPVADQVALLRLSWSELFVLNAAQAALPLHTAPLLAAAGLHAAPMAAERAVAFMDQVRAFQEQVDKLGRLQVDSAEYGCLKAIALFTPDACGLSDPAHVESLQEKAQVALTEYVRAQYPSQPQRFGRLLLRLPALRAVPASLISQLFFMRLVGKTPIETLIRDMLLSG
Method: FIGS. 27A and 27B show NR2F6 and LBD transient transfection, respectively, for Compound D28. Higher concentrations were excluded due to lower signal (tox effect). FIGS. 27C and 27D show NR2F6 and LBD transient transfection at different concentrations for different compounds. 9 compounds were tested on LBD transfected cells (40, 10, 2 and 0.5 μM, 4 replicates). FIGS. 27E and 27F show toxicity of Compound D28. 9 compounds were tested for cytotoxicity on LBD transfected cells (40, 10, 2 and 0.5 μM, 4 replicates). […] Cytotoxicity normalized to DMSO is shown in FIG. 27F (0% cytotoxicity corresponds to DMSO signal, 100%—zero signal).
FIGS. 34A and 34B show NR2F6 LBD transient transfection for Compound E21. 9 compounds were tested on LBD transfected cells (40, 10, 2 and 0.5 μM, 4 replicates). FIGS. 34C and 34D show NR2F6 and LBD transient transfection at different concentrations for different compounds. 9 compounds were tested on LBD transfected cells (40, 10, 2 and 0.5 μM, 4 replicates). […] Cytotoxicity normalized to DMSO is shown in FIG. 34D (0% cytotoxicity corresponds to DMSO signal, 100%—zero signal). All compounds were tested at 5, 10, 25 and 50 uM in duplicates. Dog PBMC (1×10^6 cells/mL) were activated by 10 ng/mL PMA+500 ng/mL ionomycin. Data were normalized to controls with (100%)/without (0%) PMA+ionomycin activation.
FIGS. 39A and 39B show NR2F6 LBD transient transfection for Compound F1. 9 compounds were tested on LBD transfected cells (40, 10, 2 and 0.5 μM, 4 replicates). FIGS. 39C and 39D show toxicity of NR2F6 LBD transient transfection. 9 compounds were tested for cytotoxicity on LBD transfected cells (40, 10, 2 and 0.5 μM, 4 replicates). Tox effect causes lower signal compared to DMSO. Cytotoxicity normalized to DMSO is shown in FIG. 39D (0% cytotoxicity corresponds to DMSO signal, 100%—zero signal).

[5] = read-out: Renilla, F4, cmpd/DMSO (mean)
[6] = 1% FBS, read-out: Renilla, F4, 1% FBS, cmpd/DMSO (mean)
[7] = 10% FBS, read-out: Renilla, F4, 10% FBS, cmpd/DMSO (mean)
[8] = HEK293, 0.5 uM, pGL4, read-out: Firefly pGL4, cmpd/DMSO (mean)
[9] = HEK293, 2 uM, pGL4, read-out: Firefly pGL4, cmpd/DMSO (mean)
[10] = HEK293, 10 uM, pGL4, read-out: Firefly pGL4, cmpd/DMSO (mean)
[11] = HEK293, 40 uM, pGL4, read-out: Firefly pGL4, cmpd/DMSO (mean)
[12] = HEK293, pGL4, 1% FBS, 0.5 uM, read-out: Firefly, pGL4, 1% FBS, cmpd/DMSO (mean)
[13] = HEK293, pGL4, 1% FBS, 2 uM, read-out: Firefly, pGL4, 1% FBS, cmpd/DMSO (mean)
[14] = HEK293, pGL4, 1% FBS, 10 uM, read-out: Firefly, pGL4, 1% FBS, cmpd/DMSO (mean)
[15] = HEK293, pGL4, 1% FBS, 40 uM, read-out: Firefly, pGL4, 1% FBS, cmpd/DMSO (mean)
[16] = HEK293, pGL4, 10% FBS, 0.5 uM, read-out: Firefly, pGL4, 10% FBS, cmpd/DMSO (mean)
[17] = HEK293, pGL4, 10% FBS, 2 uM, read-out: Firefly, pGL4, 10% FBS, cmpd/DMSO (mean)
[18] = HEK293, pGL4, 10% FBS, 10 uM, read-out: Firefly, pGL4, 10% FBS, cmpd/DMSO (mean)
[19] = HEK293, pGL4, 10% FBS, 40 uM, read-out: Firefly, pGL4, 10% FBS, cmpd/DMSO (mean)

Firefly F4, cmpd/DMSO (mean) ([1]; 0.5 uM): 1.1
Firefly F4, cmpd/DMSO (mean) ([1]; 2 uM): 1.7
Firefly F4, cmpd/DMSO (mean) ([1]; 10 uM): 2.7
Firefly F4, cmpd/DMSO (mean) ([1]; 40 uM): 3.5
F4, Firefly/Renilla for S/B(F4) > 3 ([1]; 10% FBS, 40 uM): 2.2
Firefly, F4/pGL4 for S/B(F4) > 3 ([1]; 10% FBS, 40 uM): 1.9
Firefly, F4, 1% FBS, cmpd/DMSO (mean) ([1]; 1% FBS, 0.5 uM): 1.2
Firefly, F4, 1% FBS, cmpd/DMSO (mean) ([1]; 1% FBS, 2 uM): 1.5
Firefly, F4, 1% FBS, cmpd/DMSO (mean) ([1]; 1% FBS, 10 uM): 2.0
Firefly, F4, 1% FBS, cmpd/DMSO (mean) ([1]; 1% FBS, 40 uM): 2.0
Firefly, F4, 10% FBS, cmpd/DMSO (mean) ([1]; 10% FBS, 0.5 uM): 0.8
Firefly, F4, 10% FBS, cmpd/DMSO (mean) ([1]; 10% FBS, 2 uM): 0.9
Firefly, F4, 10% FBS, cmpd/DMSO (mean) ([1]; 10% FBS, 10 uM): 1.4
Firefly, F4, 10% FBS, cmpd/DMSO (mean) ([1]; 10% FBS, 40 uM): 3.3
Firefly LBD, cmpd/DMSO (mean) ([4]; 0.5 uM): 1.0
Firefly LBD, cmpd/DMSO (mean) ([4]; 2 uM): 1.1
Firefly LBD, cmpd/DMSO (mean) ([4]; 10 uM): 2.4
Firefly LBD, cmpd/DMSO (mean) ([4]; 40 uM): 2.6
SMILES: O=S1(=O)C[C@H](NCCc2cccs2)[C@@H](S(=O)(=O)c2ccc(Cl)cc2)C1 [Compound D128]
fold induction at 0.5 µM [2, 5]: 1
fold induction at 2 µM [2, 5]: 1.2
fold induction at 10 µM [2, 5]: 1.4
fold induction at 40 µM [2, 5]: 1.6
fold induction at 0.5 µM [2, 6]: 1.2
fold induction at 2 µM [2, 6]: 1.1
fold induction at 10 µM [2, 6]: 1.6
fold induction at 40 µM [2, 6]: 1.7
fold induction at 0.5 µM [2, 7]: 0.9
fold induction at 2 µM [2, 7]: 1
fold induction at 10 µM [2, 7]: 1.1
fold induction at 40 µM [2, 7]: 1.5
fold induction at 0.5 µM [3, 8]: 1.2
fold induction at 2 µM [3, 9]: 1.6
fold induction at 10 µM [3, 10]: 2.1
fold induction at 40 µM [3, 11]: 1.5
fold induction at 0.5 µM [3, 12]: 1.1
fold induction at 2 µM [3, 13]: 1.3
fold induction at 10 µM [3, 14]: 1.9
fold induction at 40 µM [3, 15]: 1.5
fold induction at 0.5 µM [3, 16]: 0.8
fold induction at 2 µM [3, 17]: 1.1
fold induction at 10 µM [3, 18]: 1.5
fold induction at 40 µM [3, 19]: 1.7

Firefly F4, cmpd/DMSO (mean) ([1]; 0.5 uM): 0.9
Firefly F4, cmpd/DMSO (mean) ([1]; 2 uM): 2.0
Firefly F4, cmpd/DMSO (mean) ([1]; 10 uM): 5.3
Firefly F4, cmpd/DMSO (mean) ([1]; 40 uM): 0.6
F4, Firefly/Renilla for S/B(F4) > 3 ([1]; 1% FBS, 10 uM): 2.5
Firefly, F4/pGL4 for S/B(F4) > 3 ([1]; 1% FBS, 10 uM): 1.9
F4, Firefly/Renilla for S/B(F4) > 3 ([1]; 10% FBS, 10 uM): 2.7
Firefly, F4/pGL4 for S/B(F4) > 3 ([1]; 10% FBS, 10 uM): 3.3
Firefly, F4, 1% FBS, cmpd/DMSO (mean) ([1]; 1% FBS, 0.5 uM): 1.5
Firefly, F4, 1% FBS, cmpd/DMSO (mean) ([1]; 1% FBS, 2 uM): 1.8
Firefly, F4, 1% FBS, cmpd/DMSO (mean) ([1]; 1% FBS, 10 uM): 4.4
Firefly, F4, 1% FBS, cmpd/DMSO (mean) ([1]; 1% FBS, 40 uM): 0.2
Firefly, F4, 10% FBS, cmpd/DMSO (mean) ([1]; 10% FBS, 0.5 uM): 1.5
Firefly, F4, 10% FBS, cmpd/DMSO (mean) ([1]; 10% FBS, 2 uM): 1.1
Firefly, F4, 10% FBS, cmpd/DMSO (mean) ([1]; 10% FBS, 10 uM): 7.3
Firefly, F4, 10% FBS, cmpd/DMSO (mean) ([1]; 10% FBS, 40 uM): 1.6
Firefly LBD, cmpd/DMSO (mean) ([4]; 0.5 uM): 1.0
Firefly LBD, cmpd/DMSO (mean) ([4]; 2 uM): 1.5
Firefly LBD, cmpd/DMSO (mean) ([4]; 10 uM): 3.4
Firefly LBD, cmpd/DMSO (mean) ([4]; 40 uM): 0.5
SMILES: CCCCN[C@H]1CS(=O)(=O)C[C@@H]1S(=O)(=O)c1ccc(Cl)cc1 [Compound D119]
fold induction at 0.5 µM [2, 5]: 1.2
fold induction at 2 µM [2, 5]: 1.2
fold induction at 10 µM [2, 5]: 1.6
fold induction at 40 µM [2, 5]: 0.2
fold induction at 0.5 µM [2, 6]: 1.1
fold induction at 2 µM [2, 6]: 1.1
fold induction at 10 µM [2, 6]: 1.8
fold induction at 40 µM [2, 6]: 0.4
fold induction at 0.5 µM [2, 7]: 1.4
fold induction at 2 µM [2, 7]: 1.5
fold induction at 10 µM [2, 7]: 2.7
fold induction at 40 µM [2, 7]: 1.3
fold induction at 0.5 µM [3, 8]: 1.1
fold induction at 2 µM [3, 9]: 1.5
fold induction at 10 µM [3, 10]: 3.9
fold induction at 40 µM [3, 11]: 0.6
fold induction at 0.5 µM [3, 12]: 1.2
fold induction at 2 µM [3, 13]: 1.4
fold induction at 10 µM [3, 14]: 2.4
fold induction at 40 µM [3, 15]: 0.7
fold induction at 0.5 µM [3, 16]: 1.1
fold induction at 2 µM [3, 17]: 1.2
fold induction at 10 µM [3, 18]: 2.2
fold induction at 40 µM [3, 19]: 0.5

Firefly F4, cmpd/DMSO (mean) ([1]; 0.5 uM): 1.3
Firefly F4, cmpd/DMSO (mean) ([1]; 2 uM): 2.3
Firefly F4, cmpd/DMSO (mean) ([1]; 10 uM): 5.6
Firefly F4, cmpd/DMSO (mean) ([1]; 40 uM): 0.9
Activity, cmpd/DMSO ([1]; Table 31): 7.3
Firefly LBD, cmpd/DMSO (mean) ([4]; 0.5 uM): 1.0
Firefly LBD, cmpd/DMSO (mean) ([4]; 2 uM): 1.6
Firefly LBD, cmpd/DMSO (mean) ([4]; 10 uM): 4.6
Firefly LBD, cmpd/DMSO (mean) ([4]; 40 uM): 0.4
SMILES: CC1CCN([C@H]2CS(=O)(=O)C[C@@H]2S(=O)(=O)c2ccc(Cl)cc2)CC1 [Compound D125]
fold induction at 0.5 µM [2, 5]: 1
fold induction at 2 µM [2, 5]: 1.3
fold induction at 10 µM [2, 5]: 1.8
fold induction at 40 µM [2, 5]: 1.3
fold induction at 0.5 µM [3, 8]: 1.4
fold induction at 2 µM [3, 9]: 1.9
fold induction at 10 µM [3, 10]: 4.2
fold induction at 40 µM [3, 11]: 0.6
